Assay [1] concerns the target T1, MAO-A (Rattus norvegicus, UniProt P21396).
T1 sequence (P21396 1-526): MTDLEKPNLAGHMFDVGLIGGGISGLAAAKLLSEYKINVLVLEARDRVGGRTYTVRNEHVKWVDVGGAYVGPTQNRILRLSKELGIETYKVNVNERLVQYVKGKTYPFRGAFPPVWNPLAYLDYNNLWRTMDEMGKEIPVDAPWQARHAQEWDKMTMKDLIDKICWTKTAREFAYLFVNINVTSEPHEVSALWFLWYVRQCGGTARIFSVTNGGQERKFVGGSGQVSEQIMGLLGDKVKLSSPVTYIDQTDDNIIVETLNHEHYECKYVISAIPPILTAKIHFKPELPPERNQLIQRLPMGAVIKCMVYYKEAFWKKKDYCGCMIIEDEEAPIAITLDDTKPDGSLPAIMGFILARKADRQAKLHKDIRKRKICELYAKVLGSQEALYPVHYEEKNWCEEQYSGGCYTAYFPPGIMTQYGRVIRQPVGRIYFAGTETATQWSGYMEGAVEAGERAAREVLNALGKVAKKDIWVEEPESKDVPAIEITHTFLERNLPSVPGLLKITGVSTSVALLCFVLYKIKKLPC
Kind of assay: Inhibition of MAO activity in vivo, acute treatment, MAO-A. Also on record: MAO activity determined in brain and liver using the general technique described above; from tissue; host or cells: brain and liver of treated rats.
Description: Groups of three rats were used for each dose level of inhibitor, and MAO activity determined in brain and liver using the general technique described above. The amount of protein in each incubation was determined using the Folin-Lowry method, and enzyme activity calculated as nmol of substrate metabolized per hour of incubation for each mg of protein. Activity of MAO in tissues from animals treated with inhibitors was expressed as a percentage of the enzyme activity in a group of control animals administered vehicle (water for oral administration, 0.9% saline for ip injection) and killed as above.

The target in assay [2] is T1, MAO-A. To be noted: 21 days. The procedure: (+)PAI or the racemic mixture at three dose levels (0.05, 0.1 and 0.5mg/kg) by oral administration, one dose daily for 21 days, and decapitated 2 hours after the last dose.
Assay [3] deals with anoxia-induced hyperactive syndrome. To be noted: 0.5 mg/kg/day to nursing mothers. On the procedure: Anoxia was performed on rat pups on the first post-natal day. They were placed in a glass chamber and exposed to 100% nitrogen for 25 minutes. They were resuscitated by intermittent massage softly applied to the chest and then returned to their respective mothers. Control rats received the same treatment but with air instead of nitrogen.
Locomotion was measured in 6 fully computerized cages (28 x 28 cm) by recording the number of crossings over a given period of time. Crossings of grid infrared beams at 4-cm intervals initiated electrical impulses which fed a counter.
Recordings of motor activity were made at the ages of 15 and 20 days, over a period of 15 minutes.

Where [4] appears, read: dose producing 50% inhibition, rat, i.p., 1h.
Setting [5] is: dose producing 50% inhibition, rat, p.o., 2h.

Where two headings read alike, the source gives them in different places.

With `C#CCN[C@@H]1CCc2ccccc21` [[R](+)PAI, R(+)-N-propargyl-1-aminoindan], the “inhibition of MAO-A activity” value on MAO-A [1] (brain, 0.5mg/kg i.p., single dose) came to 20%. Besides, the “inhibition of MAO-A” value against MAO-A [1] (brain, 0.5mg/kg oral, single dose) is “no detectable inhibition”; against MAO-A [2] (0.5mg/kg daily oral) it was “less than 50%”. Further, at MAO-A [1] (setting [4]), the “IC-50 MAO-A I.P. BRAIN” value amounted to 1.2 mg/kg. Further, the “IC-50 MAO-A I.P. LIVER” value against MAO-A [1] (setting [4]) is reported as 5 mg/kg. Besides, at MAO-A [1] (setting [5]), the “IC-50 MAO-A P.O. BRAIN” value is reported as greater than 5 mg/kg. Also, at MAO-A [1] (setting [5]), the “IC-50 MAO-A P.O. LIVER” value is greater than 5 mg/kg. Besides, the “inhibition of brain MAO-A” value against MAO-A [2] (0.1mg/kg daily oral) is recorded as no more than 20%. In addition, the “numbers of crossings of infrared beam grid over 15 minutes” value is listed as 276 ± 186(15)a in assay [3] (Anoxia-lesioned, 15-day old rats); 737 ± 150 (16) c in assay [3] (Anoxia-lesioned, 20-day old rats); 254 ± 149(11)c in assay [3] (Control, 15-day old rats); 719 ± 110(13) in assay [3] (Control, 20-day old rats).

The values above are taken from patent EP0812190B1 (priority 1993, dated 1995).
